This is an account of results in patent US20220332845A1, “INHIBITION OF MTHFD1L FOR USE IN HYPERTROPHIC HEART DISEASE AND HEART FAILURE” (GENOME BIOLOGICS UG, priority 2019, published 2022).

Assay [1] relates to NRCs. Nature of the assay: ADP/ATP ratio in NRCs. To be noted: T3 15 nM for 6 days, scrLNA or miR27b-5p LNAs. In kind it is cell-based, rat.
Experimental: Mitochondria were isolated using the Mitochondria Isolation Kit for Cultured Cells (Abcam). Briefly, 1.2×10^6 NRCs were seeded per 6 cm dish and cells collected by scraping. After a freeze-thaw step to weaken the cell membrane, the cells were resuspended to a protein concentration of 5 mg/mL in Reagent A and incubated for 10 min on ice. The cells were homogenized with 30 strokes in a Dounce Homogenizer and centrifuged at 1000 g for 10 min at 4° C. The pellet was resuspended in the same volume of Reagent B than was used for Reagent A and rupturing and centrifugation was repeated. The supernatants after the two centrifugation steps were combined and centrifuged at 12000 g for 15 min at 4° C. Pellet was resuspended in 80 μL Reagent C supplemented with protease inhibitors and stored at −80° C. Mitochondrial ADP:ATP quantification was performed as recommended by the manufacturer (Abcam). 4×10^5 NRCs were seeded per well in a 3 cm dish and the assay was performed using the EnzyLight ADP/ATP Ratio Assay Kit (ELDT-100, Bioassay Systems) as recommended by the manufacturer. Luminescence was measured on a FLUOstar Omega plate reader (BMG).
The test system of assay [2] is NRCs. Briefly: [3H]leucine incorporation assay in NRCs. In kind it is cell-based, rat. To be noted: T3 15 nM for 6 days, scrLNA or miR27b-5p LNAs. On the procedure:
[^3H]leucine incorporation assay was used to measure de novo protein synthesis as an indirect readout for cell growth (Fukuzawa et al. Hypertension 35, 1191-1196 (2000).). 4×10^5 cells were seeded per 3 cm dish. After 3 days, cells were serum-starved overnight. Next day, cells were cultured in leucine-free medium for 4h, followed by culturing in maintenance medium containing labeled […] (specific activity 30-60 Ci/mmol, ART0233, American Radiolabelled Chemicals) at a concentration of 0.5 μCi/mL for 20 h. The next day, cells were washed with PBS, trypsinized and the radioactivity was measured for 5 min in the liquid scintillation analyzer Tri-Carb 2800TR (Perkin Elmer). Cells were counted blinded with a Neubauer chamber after trypsinization and scintillation counts were normalized to absolute cell number.

The subject of assay [3] is primary neonatal rat cardiomyocytes (NRC). Nature of the assay: Immunofluorescent staining of NRCs: multinucleation and cell size. In kind it is cell-based. The note with it: 10 μM ADP for 3 days. On the procedure: Isolation of primary neonatal rat cardiomyocytes (NRC) was performed using the neonatal heart dissociation kit (130-098-373, Miltenyi Biotec) as recommended by the manufacturer. Isolated cells were pre-plated with plating medium (65% DMEM, 16% M199, 10% fetal calf serum (FCS), 5% horse serum (HS), 2% glutamine and 1% penicillin/streptomycin (P/S)) for 1.5 h to deplete of the fibroblasts. NRC were plated on Type-I Collagen-coated (Advanced Biomatrix) 3 cm dishes (Nunc) in plating medium. The plating medium was changed to maintenance medium (88% DMEM, 9% M199, 1% HS, 2% glutamine and 1% P/S) 24 h after isolation of NRCs. Cardiomyocytes were treated with 3,3′,5-Triiodo-L-thyronine (T3, T5516, Sigma Aldrich) for 6 days at a concentration of 15 nM. NRCs were stimulated with exogenous ADP (A2754, Sigma Aldrich) at a concentration of 10 μM for 3 days. NRC were randomly chosen for treatment the day after isolation.
Immunofluorescent stainings were performed as described previously (Krishnan et al. Cell Metab 9, 512-524 (2009)). After fixation of NRCs with 4% paraformaldehyde (PFA)/PBS, the cells were permeabilized and incubated with primary antibodies against sarcomeric α-actinin (A7811, Sigma Aldrich) and phospho-Histone H3 (Ser10) (05-817, Cell Signaling) diluted in 2% (v/v) HS for 1 h at RT. […] Cell size was quantified blinded using the software Image J (version 1.47).

Turning to `N[C@@H](Cc1cc(I)c(Oc2ccc(O)c(I)c2)c(I)c1)C(=O)O` [T3, 3,3′,5-Triiodo-L-thyronine], the ADP/ATP entry in assay [1] is recorded as “increase”. Besides, the “hypertrophy ([3H]leucine incorporation)” value in assay [2] is “highly miR27b-dependent hypertrophy”.

Turning to `Nc1ncnc2c1ncn2[C@@H]1O[C@H](COP(=O)(O)OP(=O)(O)O)[C@@H](O)[C@H]1O` [ADP], in assay [3], the “cardiomyocyte hypertrophy by cell size quantification” value is “cardiomyocyte hypertrophy” and the “multinucleation (percentage of multinucleated cells)” value is reported as “sufficiency to induce multinucleation”.
